According to patent US10059689B2, “Substituted heteroaryl compounds and methods of use” (Sunshine Lake Pharma Co., Ltd., priority 2014, dated 2018):

Tests used:
[1] = target: T1, JAK1 (h) (Homo sapiens, UniProt P23458); assay: JAK1 (h) kinase assay; assay type: biochemical
T1 construct: purchased Millipore UK Ltd (contract assay service)
Experimental: (§1) The above assay procedure can be used to determine the IC50 for inhibition and/or the inhibition constant, Ki. The IC50 is defined as the concentration of compound required to reduce the enzyme activity by 50% under the condition of the assay. The IC50 value is estimated by preparing a 10 point curve using a ½ log dilution series (for example, a typical curve may be prepared using the following compound concentrations: 3 μM, 1 μM, 0.3 μM, 0.1 μM, 0.03 μM, 0.01 μM, 0.003 μM, 0.001 μM, 0.0003 μM and 0 μM).
(§2) JAK1 (h) is incubated with 20 mM Tris/HCl pH 7.5, 0.2 mM EDTA, 500 μM GEEPLYWSFPAKKK, 10 mM MgAcetate and [γ-^33P-ATP] (specific activity approx. 500 cpm/pmol, concentration as required). The reaction is initiated by the addition of the MgATP mix. After incubation for 40 minutes at room temperature, the reaction is stopped by the addition of 3% phosphoric acid solution. 10 μL of the reaction is then spotted onto a P30 filtermat and washed three times for 5 minutes in 75 mM phosphoric acid and once in methanol prior to drying and scintillation counting.
(§3) The kinase assays described herein were performed at Millipore UK Ltd, Dundee Technology Park, Dundee DD2 1SW, UK.

[2] = target: T2, JAK2 (h) (Homo sapiens, UniProt O60674); assay: JAK2 (h) kinase assay; assay type: biochemical
T2 construct: purchased Millipore UK Ltd (contract assay service)
Experimental: as §1
as §2, with “JAK2 (h)” for “JAK1 (h)”, “with 8” for “with 20”, “mM MOPS” for “mM Tris/HCl”, “pH 7.0,” for “pH 7.5,”, “EDTA, 100” for “EDTA, 500”, “μM […],” for “μM GEEPLYWSFPAKKK,”
as §3

[3] = Compound stability in rat liver microsomes; assay type: in vitro ADME; details: for half-life: pH 7.4, 37° C., NADPH, read-out: Rat T1/2; for CLint scaled: pH 7.4, in vivo CLint extrapolated
Experimental: (§4) Human or rat liver microsomes incubations were conducted in duplicate in polypropylene tubes. The typical incubation mixtures consisted of human or rat liver microsomes (0.5 mg protein/mL), compounds of interest (5 μM) and NADPH (1.0 mM) in a total volume of 200 μL potassium phosphate buffer (PBS, 100 mM, pH 7.4). Compounds were dissolved in DMSO and diluted with PBS such that the final concentration of DMSO was 0.05%. The enzymatic reactions were commenced with the addition of protein after a 3-min preincubation and incubated in a water bath open to the air at 37° C. Reactions were terminated at various time points (0, 5, 10, 15, 30, 60 min) by adding equal volume of ice-cold acetonitrile. The samples were stored at −80° C. until LC/MS/MS assays.
(§5) The concentrations of compounds in the incubation mixtures of human or rat liver microsomes were determined by a LC/MS/MS method. The ranges of the linearity in the concentration range were determined for each tested compounds.
(§6) A parallel incubation was performed using denatured microsomes as the negative control, and reactions were terminated at various time points (0, 15, 60 min) after incubation at 37° C.
(§7) Verapamil (1 μM) was selected as the positive control, and reactions were terminated at various time points (0, 5, 10, 15, 30, 60 min) after incubation at 37° C. Both positive and negative control samples were included in each assay to ensure the integrity of the microsomal incubation system.
(§8) In addition, the stability date of compound in human and rat liver microsomes was also obtained through the following method. Human or rat liver microsomes incubations were conducted in duplicate in polypropylene tubes. The typical incubation mixtures consisted of human or rat liver microsomes (0.5 mg protein/mL), compounds of interest (1.5 μM) and EDTA (1.0 mM) in a total volume of 30 μL potassium phosphate buffer (PBS, 100 mM, pH 7.4). Compounds were dissolved in DMSO and diluted with PBS such that the final concentration of DMSO was 0.2%. The enzymatic reactions were commenced with the addition of 15 μL NADPH (final concentration: 2 mM) after a 10-min preincubation and incubated in a water bath open to the air at 37° C. Reactions were terminated at various time points (0, 15, 30, 60 min) by adding 135 μL acetonitrile (contain IS). The samples were centrifuged at 4000 rpm for 10 min to remove protein, the supernatant was stored at −80° C. until LC/MS/MS assays. Ketanserin (1 μM) was selected as the positive control, and reactions were terminated at various time points (0, 15, 30, 60 min) after incubation at 37° C. Both positive and negative control samples were included in each assay to ensure the integrity of the microsomal incubation system.
(§9) The concentrations of compounds in human or rat liver microsome incubations were plotted as a percentage of the relevant zero time point control for each reaction. The in vivo CLint were extrapolated (ref.: Naritomi, Y.; Terashita, S.; Kimura, S.; Suzuki, A.; Kagayama, A.; and Sugiyama, Y.; Prediction of human hepatic clearance from in vivo animal experiments and in vitro metabolic studies with liver microsomes from animals and humans. Drug Metab. Dispos., 2001, 29: 1316-1324).

[4] = Compound stability in human liver microsomes; assay type: in vitro ADME; details: for half-life: pH 7.4, 37° C., NADPH, read-out: Human T1/2; for CLint scaled: pH 7.4, in vivo CLint extrapolated
Experimental: as §4, §5, §6, §7, §8, §9

[5] = Pharmacokinetics after intravenous and oral administration in rats; assay type: in vivo; details: for clearance (CL) / AUC(0-t) / half-life / Vd: iv dosing, 1 mg/kg; for F: oral bioavailability; for AUC(0-t) / half-life / Vd: rat, plasma; for Vd: read-out: Vss
Experimental: The LC/MS/MS system used in the analysis consists of an Agilent 1200 Series vacuum degasser, binary pump, well-plate autosampler, thermostatted column compartment, the Agilent G6430 Triple Quadrupole Mass Spectrometer with an electrosprayionization (ESI) source. Quantitative analysis was carried out using MRM mode. The parameters for MRM transitions are in the Table A.
An Agilent XDB-C18, 2.1×30 mm, 3.5 μM column was used for the analysis. 5 μL of the samples were injected. Analysis condition: The mobile phase was 0.1% formic acid in water (A) and 0.1% formic acid in methanol (B). The flow rate was 0.4 mL/min. And the gradient of Mobile phase was in the Table B.
Alternatively, an Agilent 6330 series LC/MS/MS spectrometer equipped with G1312A binary pumps, a G1367A autosampler and a G1314C UV detector were used in the analysis. An ESI source was used on the LC/MS/MS spectrometer. The analysis was done in positive ion mode as appropriate and the MRM transition for each analyte was optimized using standard solution. A Capcell MP-C18 100×4.6 mm I.D., […] column (Phenomenex, Torrance, Calif., USA) was used during the analysis. The mobile phase was 5 mM ammonia acetate, 0.1% MeOH in water (A): 5 mM ammonia acetate, 0.1% MeOH in acetonitrile (B) (70:30, v/v). The flow rate was 0.6 mL/min. Column was maintained at ambient temperature. 20 μL of the samples were injected.
The compounds disclosed herein are assessed in pharmacokinetic studies in mice, rats, dogs or monkeys. The compounds are administered as a water solution, 2% HPMC+1% TWEEN®80 in water solution, 5% DMSO+5% solutol in saline, 4% MC suspension or capsule. For the intravenous administration, the animals are generally given at 1 or 2 mg/kg dose. For the oral (p.o.) dosing, mice and rats are generally given 5 or 10 mg/kg dose, and dogs and monkeys are generally given 10 mg/kg dose. The blood samples (0.3 mL) are drawn at 0.25, 0.5, 1.0, 2.0, 3.0, 4.0, 6.0, 8.0, 12 and 24 h time points or 0.083, 0.25, 0.5, 1.0, 2.0, 4.0, 6.0, 8.0 and 24 h time points and centrifuged at 3,000 or 4000 rpm for 2 to 10 min. The plasma solutions are collected, and stored at −20° C. or −70° C. until analyzed by LC/MS/MS as described above.

T2 sequence (O60674 whole entry): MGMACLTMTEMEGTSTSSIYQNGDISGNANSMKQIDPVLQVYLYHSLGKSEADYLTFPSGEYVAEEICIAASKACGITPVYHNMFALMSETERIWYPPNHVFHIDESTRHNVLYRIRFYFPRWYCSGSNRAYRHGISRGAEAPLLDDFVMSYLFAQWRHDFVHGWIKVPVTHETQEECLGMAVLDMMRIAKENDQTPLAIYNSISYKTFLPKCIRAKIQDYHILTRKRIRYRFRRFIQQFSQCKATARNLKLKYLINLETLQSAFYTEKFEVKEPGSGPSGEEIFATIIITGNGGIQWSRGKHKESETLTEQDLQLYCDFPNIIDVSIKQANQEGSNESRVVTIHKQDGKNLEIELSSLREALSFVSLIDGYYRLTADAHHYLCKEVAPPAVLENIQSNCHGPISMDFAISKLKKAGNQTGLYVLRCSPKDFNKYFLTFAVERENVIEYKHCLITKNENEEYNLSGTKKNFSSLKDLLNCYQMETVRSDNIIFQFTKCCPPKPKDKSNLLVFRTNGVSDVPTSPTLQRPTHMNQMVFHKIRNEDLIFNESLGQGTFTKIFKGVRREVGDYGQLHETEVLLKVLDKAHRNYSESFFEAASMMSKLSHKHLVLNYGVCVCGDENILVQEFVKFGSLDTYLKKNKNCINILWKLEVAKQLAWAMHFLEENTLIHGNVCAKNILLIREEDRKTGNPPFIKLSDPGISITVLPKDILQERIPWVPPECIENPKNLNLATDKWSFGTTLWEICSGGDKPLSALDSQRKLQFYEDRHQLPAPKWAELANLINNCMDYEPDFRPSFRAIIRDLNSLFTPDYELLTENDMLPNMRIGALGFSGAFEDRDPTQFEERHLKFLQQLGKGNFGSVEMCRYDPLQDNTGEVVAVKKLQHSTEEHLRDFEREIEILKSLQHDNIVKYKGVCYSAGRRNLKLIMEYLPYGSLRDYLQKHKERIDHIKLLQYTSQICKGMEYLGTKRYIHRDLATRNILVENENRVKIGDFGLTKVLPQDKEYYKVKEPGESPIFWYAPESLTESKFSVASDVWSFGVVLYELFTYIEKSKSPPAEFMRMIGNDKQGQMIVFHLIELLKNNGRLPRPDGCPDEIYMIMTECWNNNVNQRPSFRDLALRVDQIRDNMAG
T1 sequence (P23458 whole entry): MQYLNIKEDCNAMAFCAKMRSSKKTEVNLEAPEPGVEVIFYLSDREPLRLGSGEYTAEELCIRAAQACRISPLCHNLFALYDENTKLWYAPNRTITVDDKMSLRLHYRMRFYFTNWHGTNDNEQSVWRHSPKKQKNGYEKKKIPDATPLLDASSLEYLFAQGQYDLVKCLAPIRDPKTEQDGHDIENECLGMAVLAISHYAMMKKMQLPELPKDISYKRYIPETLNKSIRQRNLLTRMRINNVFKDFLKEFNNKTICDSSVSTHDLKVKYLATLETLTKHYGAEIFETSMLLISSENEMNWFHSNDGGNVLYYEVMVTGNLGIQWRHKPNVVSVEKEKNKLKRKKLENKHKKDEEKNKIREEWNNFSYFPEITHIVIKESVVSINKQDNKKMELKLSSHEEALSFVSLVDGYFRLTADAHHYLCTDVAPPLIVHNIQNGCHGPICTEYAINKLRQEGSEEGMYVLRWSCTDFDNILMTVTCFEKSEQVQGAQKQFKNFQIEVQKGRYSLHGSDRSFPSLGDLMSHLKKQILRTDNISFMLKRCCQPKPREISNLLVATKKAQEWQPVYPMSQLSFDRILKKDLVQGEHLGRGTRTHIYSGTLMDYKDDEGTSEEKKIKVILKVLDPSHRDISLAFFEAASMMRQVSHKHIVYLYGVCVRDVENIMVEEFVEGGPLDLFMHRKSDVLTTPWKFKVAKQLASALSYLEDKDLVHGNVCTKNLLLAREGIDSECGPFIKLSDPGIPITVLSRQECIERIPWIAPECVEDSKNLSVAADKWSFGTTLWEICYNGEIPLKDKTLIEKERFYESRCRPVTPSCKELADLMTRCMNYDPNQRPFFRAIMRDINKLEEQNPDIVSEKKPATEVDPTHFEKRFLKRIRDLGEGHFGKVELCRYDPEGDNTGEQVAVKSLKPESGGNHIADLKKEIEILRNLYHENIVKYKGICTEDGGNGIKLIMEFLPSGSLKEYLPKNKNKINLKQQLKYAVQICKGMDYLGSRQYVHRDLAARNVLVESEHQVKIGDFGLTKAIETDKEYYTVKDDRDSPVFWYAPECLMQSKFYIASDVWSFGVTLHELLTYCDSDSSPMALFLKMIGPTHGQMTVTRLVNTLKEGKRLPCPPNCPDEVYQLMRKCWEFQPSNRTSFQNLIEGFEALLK

| SMILES | IC50 [1] [nM] | IC50 [2] [nM] | half-life [3] [min] | CLint scaled [3] [mL/min/kg] | half-life [4] [min] | CLint scaled [4] [mL/min/kg] | clearance (CL) [5] [mL/min/kg] | F [5] [%] | AUC(0-t) [5] [ng·h/mL] | half-life [5] [min] | Vd [5] [L/kg] |
| --- | --- | --- | --- | --- | --- | --- | --- | --- | --- | --- | --- |
| Cc1cc(Nc2ncc(Cl)c(NC3CCN(c4ccc(C#N)cn4)CC3)n2)nn1C [Ex. 2] | 0.6 | 3 | 17.7 | 140 | 36.3 | 47.9 | – | – | – | – | – |
| Cc1nn(C)cc1Nc1ncc(Cl)c(N(C)C2CCN(c3ccc(C#N)cn3)CC2)n1 [Ex. 14, 6-(4-((5-chloro-2-((1,3-dimethyl-1H-pyrazol-4-yl)amino)pyrimidin-4-yl) (methyl)amino)piperidin-1-yl)nicotinonitrile] | 1 | 175 | 1.71 | 1450 | 7.99 | 217 | 61.2 | 107.1 | 273 | 29.4 | 1.19 |
| CCC1CN(c2ccc(C#N)nn2)CCC1Nc1nc(Nc2cc(C)n(C)n2)ncc1Cl (centres unmarked) [Ex. 15, 6-(4-((5-chloro-2-((1,5-dimethyl-1H-pyrazol-3-yl)amino)pyrimidin-4-yl)amino)-3-ethylpiperidin-1-yl)pyridazine-3-carbonitrile] | 0.6 | 0.6 | 35 | 71 | 23.3 | 74.5 | 8.67 | 92.2 | 1930 | 45.6 | 0.48 |
| Cc1cc(Nc2ncc(Cl)c(NC3CCN(c4ccc(C#N)cn4)CC3)n2)n[nH]1 [Ex. 3] | < 0.3 | 2 | 74.5 | 33.3 | 163 | 10.7 | 17.2 | 112.01 | 1060 | 56.4 | 0.94 |
| Cn1cc2ccc(Nc3ncc(Cl)c(NC4CCN(c5ccc(C#N)nn5)CC4)n3)cc2n1 [Ex. 25] | < 0.3 | – | 20.8 | 120 | 25.7 | 67.6 | 14 | 62.8 | 1220 | 28.2 | 0.33 |

Further compounds by falling IC50 [1], results first:

| IC50 [1] [nM] | IC50 [2] [nM] | half-life [3] [min] | CLint scaled [3] [mL/min/kg] | half-life [4] [min] | CLint scaled [4] [mL/min/kg] | clearance (CL) [5] [mL/min/kg] | F [5] [%] | AUC(0-t) [5] [ng·h/mL] | half-life [5] [min] | Vd [5] [L/kg] | SMILES |
| --- | --- | --- | --- | --- | --- | --- | --- | --- | --- | --- | --- |
| 22 | – | 9.2 | 270 | 14.5 | 120 | 37.7 | 67.1 | 445 | 20.4 | 0.86 | CN(c1nc(Nc2cnn(C)c2)ncc1Cl)C1CCN(c2ccc(C#N)cn2)C1 (centres unmarked) [Ex. 7, 6-(3-((5-chloro-2-((1-methyl-1H-pyrazol-4-yl)amino)pyrimidin-4-yl) (methyl)amino)pyrrolidin-1-yl)nicotinonitrile] |
| 4 | – | 10.4 | 240 | 17.9 | 96.9 | 48.8 | 45.8 | 350 | 54 | 2.63 | Cc1cc(Nc2ncc(Cl)c(N(C)C3CCN(c4ccc(C#N)cn4)CC3)n2)nn1C [Ex. 9, 6-(4-((5-chloro-2-((1,5-dimethyl-1H-pyrazol-3-yl)amino)pyrimidin-4-yl) (methyl)amino)piperidin-1-yl)nicotinonitrile] |
| 1 | 0.8 | – | – | – | – | – | – | – | – | – | Cn1nc(Nc2ncc(Cl)c(NC3CCN(c4ccc(C#N)cn4)CC3)n2)cc1C(C)(C)O [Ex. 26, 6-(4-((5-chloro-2-((5-(2-hydroxypropan-2-yl)-1-methyl-1H-pyrazol-3-yl)amino)pyrimidin-4-yl)amino)piperidin-1-yl)nicotinonitrile] |
